Measured values as given in patent US7038014B2, “Polycation-sensing receptor in aquatic species and methods of use thereof” (Brigham and Women's Hospital, priority 1996, dated 2006).
Where “and” joins values, the source holds several entries; their conditions need not be identical. Identical values can stand only once. Like-named read-outs stand apart in the source and are kept apart here.

Columns and labels:
[1] = system: isolated urinary bladder of winter flounder (PVCR; thiazide-sensitive NaCl cotransporter); assay: Water reabsorption (Jv) in isolated winter flounder urinary bladder, gravimetric; assay type: cell-based, winter flounder (Pseudopleuronectes americanus); conditions: for water reabsorption (Jv): control Jv 130±28; for inhibition of water reabsorption: application of agent, concentration not stated (summary); for IC50: read-out: half maximal inhibitory concentration for urinary bladder Jv (IC50); for reversibility of inhibitory effect on Jv: upon removal of agonist
Experimental: To provide further evidence linking Aquatic PVCRs to fish osmoregulation, isolated urinary bladder of winter founder was used to investigate whether PVCRs modulate epithelial cell ion transport. […] Water reabsorption from the urine stored in urinary bladder allows for the concentrations of both Mg^2+ and Ca^2+ to increase to values as high as 84 mM and 7 mM respectively in marine founders (Elger, E. B., et al., J. Como. Physiol., B157:21 (1987)). 5 Net apical to basolateral water flux (Jv) was measured gravimetrically in 10 minute intervals using individual urinary bladder excised from winter flounder. […] The weight of the bladder was measured before and after the experimental period, wherein the experimental period comprised the period of time that the isolated bladder was exposed to test compound. The compound to be tested (e.g., test compound) was added to both serosal and mucosal solutions. The bladders were dried and weighted as described in Renfro et al. The difference in bladder weight prior to and after exposure to test compound is an indication of water reabsorption by the bladder.
Endocrinol. 127:1064–1071 (1990). […]

[2] = system: SKCaR (SEQ ID NO.: 2); assay: FURA 2 intracellular calcium assay of SKCaR activation in transfected HEK cells; assay type: cell-based, dogfish shark (Squalus acanthias)
From the text: SKCaR cDNA (SEQ ID NO.: 1) was ligated into the mammalian expression vector PCDNA II and transfected into HEK cells using standard techniques. The presence of SKCaR protein (SEQ ID NO.: 2) in transfected cells was verified by western blotting. Activation of SKCaR (SEQ ID NO.: 2) by extracellular Ca2+, Mg2+ or NaCl was quantified using a well characterized FURA 2 based assay where increases in intracellular Ca2+ produced by SKCaR activation are detected using methodology published previously the Dr. E. Brown's laboratory (Bai, M., S. Quinn, S. Trvedi, O. Kifor, S. H. S. Pearce, M. R. Pollack, K. Krapcho, S. C. Hebert and E. M. Brown. Expression and characterization of inactivating and activating mutations in the human Ca2+-sensing receptor. J. Biol. Chem., 32:19537–19545 (1996)) and expressed as % normalized intracellular calcium response to receptor activation.

[3] = molecular target: T1, mammalian CaRs (Bos taurus, UniProt P35384); conditions: literature value; cited from earlier work
T1 sequence (P35384 20-1085): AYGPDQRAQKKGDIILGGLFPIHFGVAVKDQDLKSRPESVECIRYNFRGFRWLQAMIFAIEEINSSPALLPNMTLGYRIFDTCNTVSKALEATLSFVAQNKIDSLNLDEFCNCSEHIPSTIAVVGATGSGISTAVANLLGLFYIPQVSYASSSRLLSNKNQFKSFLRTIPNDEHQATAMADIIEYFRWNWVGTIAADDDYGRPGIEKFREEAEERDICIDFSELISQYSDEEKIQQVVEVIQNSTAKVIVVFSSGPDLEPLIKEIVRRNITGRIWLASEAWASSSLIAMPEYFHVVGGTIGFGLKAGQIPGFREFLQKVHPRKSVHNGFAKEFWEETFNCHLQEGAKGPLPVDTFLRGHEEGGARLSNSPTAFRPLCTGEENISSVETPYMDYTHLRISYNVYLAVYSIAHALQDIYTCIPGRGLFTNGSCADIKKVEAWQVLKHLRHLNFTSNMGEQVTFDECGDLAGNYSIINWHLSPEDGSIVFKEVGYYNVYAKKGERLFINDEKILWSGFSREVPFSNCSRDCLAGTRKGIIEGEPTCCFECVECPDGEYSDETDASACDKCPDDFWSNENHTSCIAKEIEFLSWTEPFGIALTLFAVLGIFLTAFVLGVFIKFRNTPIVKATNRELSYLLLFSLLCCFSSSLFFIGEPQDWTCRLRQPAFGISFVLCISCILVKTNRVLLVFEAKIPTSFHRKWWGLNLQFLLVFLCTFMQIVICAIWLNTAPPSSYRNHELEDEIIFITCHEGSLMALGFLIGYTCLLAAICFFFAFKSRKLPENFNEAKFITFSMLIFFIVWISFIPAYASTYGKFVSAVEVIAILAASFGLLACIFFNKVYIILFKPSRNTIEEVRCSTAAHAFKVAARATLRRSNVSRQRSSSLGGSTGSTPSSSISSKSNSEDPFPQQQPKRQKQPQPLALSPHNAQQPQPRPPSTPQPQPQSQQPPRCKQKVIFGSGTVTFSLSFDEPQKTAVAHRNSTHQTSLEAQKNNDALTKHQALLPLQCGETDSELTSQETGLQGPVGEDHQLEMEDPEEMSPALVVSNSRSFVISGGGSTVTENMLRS

[4] = extracellular NaCl 50 mM, read-out: EC50 for activation of SKCaR
[5] = extracellular NaCl 550 mM, read-out: EC50 for activation of SKCaR

Compound	inhibition of water reabsorption (Jv) ([1]; 100 μM agent) [%]	water reabsorption (Jv) ([1]; 100 μM agent) [μl/gm/hr]	inhibition of water reabsorption [1] [%]	EC50 [2, 4] [µM]	EC50 [2, 5] [µM]	IC50 [1] [µM]	reversibility of inhibitory effect on Jv [1]	other results
NS(=O)(=O)c1cc2c(cc1Cl)NCNS2(=O)=O [hydrochlorothiazide]	86±2	18±7	> 85	–	–	–	–	–
[Cl-].[Na+] [NaCl]	–	–	–	–	–	–	–	effect on sensitivity of SKCaR to Ca2+ ([2]; increasing concentrations of NaCl): reduce the sensitivity
[Ca+2] [Ca2+, calcium]	–	–	–	< 5000	~18000	–	–	effect on sensitivity of SKCaR to Mg2+ ([2]; addition of 3 mM Ca2+, as a function of extracellular NaCl): increases the sensitivity; EC50 ([2]; depending on the extracellular concentration of NaCl, read-out: half maximal activation of SKCaR): 1000 to 15000 µM
[Gd+3] [Gd^3+, gadolinium]	75±5	32±18	> 90	–	–	15	reversible	–
[Mg+2] [Mg2+, magnesium]	–	–	–	< 20000	~80000	–	–	concentration range in which SKCaR is activated ([2]; modulated by extracellular NaCl): 5 to 40 mM
neomycin	–	–	> 50	–	–	150	reversible	inhibition of water reabsorption (Jv) ([1]; 200 μM agent): 52±4%; water reabsorption (Jv) ([1]; 200 μM agent): 63±10 μl/gm/hr; IC50 [3]: 50 µM and 60 to 70 µM
